Experimental data taken from patent US20180325891A1, “OCTAHYDRO AZADECALIN FORMULATIONS” (Corcept Therapeutics, Inc., priority 2017, published 2018).

Assay: Solubility assessment of CORT125281 in various excipients
Assay type: physicochemical
Experimental: The solubility of the API was assessed in Labrasol, Kolliphor RH40, Kollisolv P124 and Kolliphor HS15 in order to assess scope for formulation alternatives. […] It is probable that these would be able to be solubilized given more time/energy input.

## Cn1ncc(S(=O)(=O)N2CC[C@H]3Cc4c(cnn4-c4ccc(F)cc4)C[C@]3(C(=O)c3cc(C(F)(F)F)ccn3)C2)n1 [CORT125281, ((4aR,8aS)-1-(4-fluorophenyl)-6-((2-methyl-2H-1,2,3-triazol-4-yl)sulfonyl)-4,4a,5,6,7,8,8a,9-octahydro-1H-pyrazolo[3,4-g]isoquinolin-4a-yl)(4-(trifluoromethyl)pyridin-2-yl)methanone]
Kolliphor HS15 mix
  solubility of the API in excipient, visual and microscopic analysis: visibly clear, but upon microscopic analysis, they were found to contain a small number of API crystals
Labrasol mix
  solubility of the API in excipient, visual and microscopic analysis: visibly clear, but upon microscopic analysis, they were found to contain a small number of API crystals
In Kolliphor RH40
  solubility of the API in excipient: < 40 mg/g
In Kollisolv P124
  solubility of the API in excipient: < 40 mg/g
